Values joined by “and” are separate entries in the source; they are usually repeats but may differ in a detail not shown here. Equal values may be shown once. Read-outs that look alike come from different tables or passages of the source.
Assays:
[1] = system: M. abscessus rough variant; test: microbe, parasite or virus in culture; assay type: cell-based
[2] = system: M. abscessus smooth variant; test: microbe, parasite or virus in culture; assay type: cell-based
[3] = DSC of DMPC bilayers with inhibitor; assay type: physicochemical; conditions: for Tm (main transition) / ΔH / ΔT1/2: 10 wt % inhibitor, PBS pH 7.4, heating
M. tuberculosis HN878 = M. tuberculosis HN878 growth inhibition; assay type: cell-based, Mycobacterium tuberculosis; conditions: for IC50: read-out: Mtb HN878 IC50, dose-response curves; for Mtb HN878 MIC: visual inspection
[4] = system: HepG2 (human hepatocellular carcinoma) cells; test: HepG2 cell line viability; conditions: 20 μM
M. smegmatis = M. smegmatis cell growth inhibition; assay type: cell-based, Mycobacterium smegmatis; conditions: read-out: Ms IC50; M. smegmatis
E. coli = E. coli growth inhibition; assay type: cell-based, Escherichia coli; conditions: read-out: Ec IC50
[5] = system: T. brucei bloodstream forms; test: T. brucei bloodstream form growth inhibition; assay type: cell-based, Trypanosoma brucei; conditions: read-out: T. brucei IC50; bloodstream forms
M. tuberculosis Erdman = M. tuberculosis Erdman growth inhibition; assay type: cell-based, Mycobacterium tuberculosis
[6] = system: T. cruzi Dm28c intracellular amastigotes; test: T. cruzi intracellular amastigote inhibition; assay type: cell-based, Trypanosoma cruzi; conditions: read-out: T. cruzi IC50 (PAR); intracellular amastigotes in U2OS host cells
U2OS host cells = test: U2OS host cell growth inhibition; conditions: read-out: T. cruzi CC50 (U20S)
[7] = biological target: M. tuberculosis MmpL3 (MtMmpL3) (Mycobacterium tuberculosis, UniProt P9WJV5); test: Surface plasmon resonance binding to MmpL3; conditions: for koff: 1:1 Langmuir binding model
M. tuberculosis MmpL3 (MtMmpL3), sequence (P9WJV5 whole entry): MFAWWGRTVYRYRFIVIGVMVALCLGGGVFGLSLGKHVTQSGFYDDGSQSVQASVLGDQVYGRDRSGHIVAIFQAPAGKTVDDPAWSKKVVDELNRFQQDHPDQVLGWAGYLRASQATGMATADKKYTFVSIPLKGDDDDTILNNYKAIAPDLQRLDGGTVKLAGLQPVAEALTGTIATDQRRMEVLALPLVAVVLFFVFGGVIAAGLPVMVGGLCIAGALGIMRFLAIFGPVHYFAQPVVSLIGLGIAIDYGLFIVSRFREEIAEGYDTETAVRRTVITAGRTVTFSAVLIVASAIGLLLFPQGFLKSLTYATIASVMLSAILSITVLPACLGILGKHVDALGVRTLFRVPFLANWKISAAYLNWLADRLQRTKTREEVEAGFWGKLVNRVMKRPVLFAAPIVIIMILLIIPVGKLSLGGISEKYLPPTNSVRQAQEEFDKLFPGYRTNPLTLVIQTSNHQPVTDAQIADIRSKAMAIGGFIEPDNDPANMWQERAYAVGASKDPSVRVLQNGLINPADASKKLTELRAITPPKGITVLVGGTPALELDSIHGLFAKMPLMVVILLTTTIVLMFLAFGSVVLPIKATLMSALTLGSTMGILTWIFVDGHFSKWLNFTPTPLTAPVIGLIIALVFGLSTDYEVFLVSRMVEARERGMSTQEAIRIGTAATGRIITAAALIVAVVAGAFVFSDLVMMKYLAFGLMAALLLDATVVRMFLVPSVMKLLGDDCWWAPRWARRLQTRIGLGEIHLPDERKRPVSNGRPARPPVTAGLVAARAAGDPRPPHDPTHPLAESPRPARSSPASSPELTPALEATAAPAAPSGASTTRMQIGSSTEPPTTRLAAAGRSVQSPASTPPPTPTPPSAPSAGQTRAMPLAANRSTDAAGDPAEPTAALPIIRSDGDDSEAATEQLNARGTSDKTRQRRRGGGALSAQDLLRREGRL

[8] = system: T. cruzi Dm28c epimastigotes; test: T. cruzi epimastigote growth inhibition; assay type: cell-based, Trypanosoma cruzi; conditions: read-out: T. cruzi IC50 (EPI); epimastigotes
M. tuberculosis H37Rv = M. tuberculosis H37Rv growth inhibition; assay type: cell-based, Mycobacterium tuberculosis
[9] = system: L. mexicana promastigotes; test: L. mexicana promastigote growth inhibition; assay type: cell-based, Leishmania mexicana; conditions: for IC50: read-out: L. mexicana IC50, promastigotes
[10] = DSC of DSPG bilayers with inhibitor; assay type: physicochemical; conditions: for Tm (main transition) / ΔH / ΔT1/2: 10 wt % inhibitor, PBS pH 7.4, heating; for Broadening of main transition peak ΔΤ1/2 compared to pure DSPG / Decrease of Tm compared to DSPG alone: heating
[11] = system: L. donovani promastigotes; test: L. donovani promastigote growth inhibition; assay type: cell-based, Leishmania donovani; conditions: read-out: L. donovani IC50; promastigotes
[12] = system: Plasmodium falciparum asexual blood stages; test: P. falciparum asexual blood stage; assay type: cell-based; conditions: read-out: PfABS IC50 (μM ± S.E.); asexual blood stages
Bacillus subtilis = test: B. subtilis growth inhibition; assay type: cell-based; conditions: read-out: Bs IC50
[13] = read-out: KD, 1:1 model, 1:1 binding model, from ratio of rate constants
[14] = read-out: KD, 2-state, two-state model, from rate constants

| SMILES | Ma(R) MIC [1] [µM] | Ma(S) MIC [2] [µM] | Tm (main transition) [3] [°C] | ΔH [3] [kJ/mol] | ΔT1/2 [3] [°C] | Decrease of Tm compared to DMPC without inhibitor ([3]; heating) | IC50 (M. tuberculosis HN878) [µM] | Mtb HN878 MIC (M. tuberculosis HN878) [µM] | HepG2 % viability @ 20 μM [4] [%] | IC50 (M. smegmatis) [µM] | IC50 (E. coli) [µM] | IC50 [5] [µM] | Mtb Erdman MIC (M. tuberculosis Erdman) [µM] | IC50 [6] [µM] | CC50 (U2OS host cells) [µM] | koff [7] [s⁻¹] | Kd [7, 13] [µM] | Kd [7, 14] [µM] | ka1 ([7]; two-state model) [M⁻¹ s⁻¹] | ka2 ([7]; two-state model) [s⁻¹] | also measured |
| --- | --- | --- | --- | --- | --- | --- | --- | --- | --- | --- | --- | --- | --- | --- | --- | --- | --- | --- | --- | --- | --- |
| CCCC1(NCCNCC=C(C)CCC=C(C)C)C2CC3CC(C2)CC1C3 (stereo not shown) [Compound 8d, N-(3,7-dimethylocta-2,6-dien-1-yl)-N´-(2-propyladamantan-2-yl)ethane-1,2-diamine] | 10 | 10 | 17.5 | 22.6 | 2.2 | ~6 °C | 2.6 ± 1 | 3 | 100 | 4.3 ± 0.8 | 7.6 | 0.88 ± 0.2 | 13 | 0.6 ± 0.5 | 1.6 ± 0.1 | 0.5403 | 91 | 106 | 7325 | 0.00968 | kd1 ([7]; two-state model): 0.9488 s⁻¹; kd2 ([7]; two-state model): 0.04246 s⁻¹; IC50 [8]: 2.1 ± 0.9 µM; Mtb H37Rv MIC (M. tuberculosis H37Rv): 13 µM; Less active than 8b/SQ109, L. mexicana [9]: ~ 4 fold; IC50 [9]: 1.94 µM and 1.9 µM; Tm (main transition) [10]: 50.0 °C; ΔH [10]: 48.1 kJ/mol; ΔT1/2 [10]: 1.1 °C; Broadening of main transition peak ΔΤ1/2 compared to pure DSPG [10]: 0.2–1.6 °C; Decrease of Tm compared to DSPG alone [10]: 3–4 °C; IC50 [11]: 2 ± 0.2 µM; IC50 [12]: 0.53 ± 0.22 µM |
| CC(C)=CCCC(C)=CCNCCNC1(Cc2ccccc2)C2CC3CC(C2)CC1C3 (stereo not shown) [Compound 8g, N-(3,7-dimethylocta-2,6-dien-1-yl)-N´-(2-benzyladamantan-2-yl)ethane-1,2-diamine] | 5.8 | 5.8 | 16.6 | 21.6 | 10 | ~6.9 °C | 2 ± 0.5 | 1.6 | 100 | 6 | 130 | 0.85 ± 0.09 | 6.1 | 0.92 ± 0.06 | 2 ± 0.4 | 0.3999 | 69 | 74 | 6462 | 0.006528 | Activity against M. abscessus higher than SQ109 [2]: 4–8 fold; MIC against M. abscessus [2]: 5.8 to 6.2 µM; Broadening of main transition peak ΔΤ1/2 compared to pure DMPC ([3]; heating): 9.6 °C; Less activity than SQ109 against M. tuberculosis (M. tuberculosis HN878; MtbHN878, MtErdman and MtH37Rv): 2–4 fold; kd1 ([7]; two-state model): 0.5715 s⁻¹; kd2 ([7]; two-state model): 0.03248 s⁻¹; IC50 [8]: 6.6 ± 1 µM; Mtb H37Rv MIC (M. tuberculosis H37Rv): 6.1 µM; Tm (main transition) [10]: 48.0 °C; ΔH [10]: 55.5 kJ/mol; ΔT1/2 [10]: 1.7 °C; Broadening of main transition peak ΔΤ1/2 compared to pure DSPG [10]: 0.2–1.6 °C; Decrease of Tm compared to DSPG alone [10]: ~ 5 °C; IC50 [11]: 6.1 ± 0.06 µM; IC50 (Bacillus subtilis): 0.59 µM |
| CC(C)=CCCC(C)=CCNCCNC(C)(C)C12CC3CC(CC(C3)C1)C2 [Compound 12, N-(3,7-dimethylocta-2,6-dien-1-yl)-N´-(2-(adamantan-1-yl)propan-2-yl)ethane-1,2-diamine] | 12.9 | 12.9 | 19.8 | 17.8 | 4.1 | 3–4 °C | 3.4 ± 0.6 | 3 | 100 | 15 ± 2 | 8.9 | 1.4 ± 0.03 | 13 | 0.56 ± 0.9 | 1.4 ± 0.2 | 0.6646 | 106 | 120 | 7245 | 0.007539 | kd1 ([7]; two-state model): 1.05 s⁻¹; kd2 ([7]; two-state model): 0.03558 s⁻¹; IC50 [8]: 2.4 ± 0.7 µM; Mtb H37Rv MIC (M. tuberculosis H37Rv): 13 µM; IC50 [9]: 4.7 ± 0.2 µM; Tm (main transition) [10]: 49.8 °C; ΔH [10]: 55.8 kJ/mol; ΔT1/2 [10]: 2.4 °C; Broadening of main transition peak ΔΤ1/2 compared to pure DSPG [10]: 0.2–1.6 °C; Decrease of Tm compared to DSPG alone [10]: 3–4 °C; IC50 [11]: 2.3 ± 0.1 µM; IC50 [12]: 0.77 ± 0.1 µM |

Source: PMC10615177 (ACS infectious diseases, 2023)
